“Also recorded” adds a separate entry of the source.
Assays:
[1] = tested on: Wt fibroblasts; experiment: Disassembly of phalloidin-positive actin stress fibers in response to PDGF-BB; type: cell-based, mouse
Description: (§1) Tissue sections were stained for collagen (Masson's trichrome), α-smooth muscle actin, vimentin and tenascin following manufacturer's recommendations. Staining was quantified after counter-staining with Harris Hematoxylin (EM SCIENCE) and mounting in Cytoseal 60 (Tullberg-Reinert, H., and Jundt, G. 1999. In situ measurement of collagen synthesis by human bone cells with a sirius red-based colorimetric microassay: effects of transforming growth factor beta2 and ascorbic acid 2-phosphate. Histochem Cell Biol 112:271-276). Immunofluorescence of phospho-ERK1,2 was done as previously published (49). For the detection of droplets of neutral lipids, paraformaldehyde-fixed cells were stained with BODIPY 493/503 (25 μg/ml) (Gocze, P. M., and Freeman, D. A. 1994. Factors underlying the variability of lipid droplet fluorescence in MA-10 Leydig tumor cells. Cytometry 17:151-158). Actin stress fibers were detected with Oregon-green phalloidin.
(§2) Cell migration and invasion require the rapid assembly/disassembly of the actin cytoskeleton. Since intracellular Rhamm forms associate with the actin cytoskeleton and are required for v-src-mediated actin cytoskeleton disassembly, we compared the ability of Rh-/- fibroblasts with Rh^FL-rescued fibroblasts to disassemble phalloidin-positive actin stress fibers in response to PDGF-BB. […]

[2] = tested on: Rh-/- fibroblasts; experiment: as above; type: cell-based, mouse
Description: as §1, §2

[3] = tested on: Wt fibroblasts; experiment: Random motility of fibroblasts by time-lapse cinemicrography; type: cell-based, mouse
Procedure: (§3) Cell culture medium and culture conditions were described previously in Zhang, S., Chang, M. C., Zylka, D., Turley, S., Harrison, R., and Turley, E. A. 1998. The hyaluronan receptor RHAMM regulates extracellular-regulated kinase. J Biol Chem 273:11342-11348; and Tolg, C., et al. 2003. Genetic deletion of receptor for hyaluronan-mediated motility (Rhamm) attenuates the formation of aggressive fibromatosis (desmoid tumor). Oncogene 22:6873-6882. PDGF-BB (25 ng/ml), HA (500 ng/ml-1 mg/ml) or FCS (10%) were added to 24 hrs serum-starved, 50% sub-confluent fibroblasts on fibronectin (25 μg/ml)-coated dishes (Zhang, S., Chang, M. C., Zylka, D., Turley, S., Harrison, R., and Turley, E. A. 1998. The hyaluronan receptor RHAMM regulates extracellular-regulated kinase. J Biol Chem 273:11342-11348; Hall, C. L., Lange, L. A., Prober, D. A., Zhang, S., and Turley, E. A. 1996. pp60(c-src) is required for cell locomotion regulated by the hyaluronanreceptor RHAMM. Oncogene 13:2213-2224). […]
(§4) For experiments assessing the motogenic effects of HA and PDGF-BB, cells were plated onto fibronectin-coated tissue culture flasks at 50% sub-confluence overnight then serum-starved for 24 hrs. […] For quantifying the effect of FCS, fibroblasts were plated at 50% sub-confluence overnight onto tissue culture dishes that had been pre-coated with serum proteins. […]
(§5) Efficient repair of excisional wounds also depends upon motility speed in response to motogens present in the microenvironment (See Ridley, A. J., Schwartz, M. A., Burridge, K., Firtel, R. A., Ginsberg, M. H., Borisy, G., Parsons, J. T., and Horwitz, A. R. 2003. Cell migration: integrating signals from front to back. Science 302:1704-1709). The velocity of migration stimulated by HA (FIG. 6A) or FCS (FIGS. 9A, 9B) was assessed directly using time-lapse cinemicrography of cells cultured on fibronectin-coated 2D tissue culture surfaces (Hall, C. L., Lange, L. A., Prober, D. A., Zhang, S., and Turley, E. A. 1996. pp60(c-src) is required for cell locomotion regulated by the hyaluronanreceptor RHAMM. Oncogene 13:2213-2224). […]

[4] = tested on: Rh-/- fibroblasts; experiment: as above; type: cell-based, mouse
Procedure: as §3, §4, §5

[5] = tested on: uninjured skin of male Fisher rats; experiment: Subcutaneous fat after injection in collagen solution under uninjured skin; type: in vivo; settings: uninjured rat skin, injected in type 1 collagen solution, harvested 4, 7 and 14 days after injection
Procedure: 0.2 , 2 and 20 ug of hyaluronan binding peptide or scrambled peptide were mixed in 1 ml of type 1 collagen solution, (3 mg/m1) and 0.25 ml of the solution was injected under the skin on the flanks of 3 month old male Fisher rats. Hair at the site of injection was removed prior to injection using Nair for marking purposes. Injection sites were harvested by skin punches at 4, 7 and 14 days after injection.

[6] = tested on: rat excisional skin wounds; experiment: Wound site (sub-cutaneous) adipogenesis in full thickness excisional wounds covered with collagen gel; type: in vivo; settings: for adipogenesis within the wound site: rat excisional wounds, peptide in collagen gel, 14 days after wounding, histology
Procedure: FIG. 14. Effect of a hyaluronan binding peptide on wound site (sub-cutaneous) adipogenesis. A. Full thickness excisional wounds were placed on the flanks of male Fisher rats then these were covered with collagen gels (matrix) containing either no peptide (matrix), hyaluronan binding peptide (at 200, 20 and 2 ug/woundsite) or scrambled peptide (at 200 ug/woundsite). The wound sites were excised 14 days after wounding and processed for histology. Micrographs show Mason Trichrome stained tissue sections through the center of the wounds.
Wt and Rh-/- mice (3-18 month old) or male Sprague-Dawley rats were anaesthetized by Halothane inhalation. Two full thickness wounds were placed on denuded back skin using a 4 mm metal punch. In the case of the rat experiments, 200 ul of a vitrogen solution (type 1 collagen solution that gels at 35-37C) containing no peptide, 2-200 μg hyaluronan binding peptide or scrambled peptide was used to cover the wounds. Animals were housed in individual cages for the experimental period. Wounds were harvested at varying times using a 8 mm metal punch from similar locations on the backs of mice of the same gender and age. Harvested wounds were fixed overnight in 4% paraformaldehyde and paraffin embedded as described in Tolg, C., et al. 2003. Genetic deletion of receptor for hyaluronan-mediated motility (Rhamm) attenuates the formation of aggressive fibromatosis (desmoid tumor). Oncogene 22:6873-6882;. Numbered serial sections were cut perpendicular to the wound edge starting at the wound center. The first and last sections were stained with Masson's trichrome and non-stained sections were used for immunohistochemistry. To ensure that serial sections were cut starting at the wound center, wound samples were cut in half through the wound center prior to embedding

[7] = listed as Hyaluronan binding peptides

| Compound | effect on actin disassembly in response to PDGF-BB [1] | effect on actin disassembly in response to PDGF-BB [2] | effect on motility in response to PDGF-BB ([3]; Wt fibroblasts, PDGF-BB) | effect on random motility in the presence of FCS ([3]; primary Wt fibroblasts, FCS) | effect on motility in response to PDGF-BB [4] | subcutaneous fat / accumulation of adipocytes at injection site [5] | subcutaneous fat / accumulation of adipocytes at injection site [5, 7] | concentrations that increase subcutaneous adipogenesis ([6]; rat excisional skin wounds) | adipogenesis within the wound site [6] | adipogenesis within the wound site [6, 7] |
| --- | --- | --- | --- | --- | --- | --- | --- | --- | --- | --- |
| COc1cccc(-c2cc(=O)c3ccccc3o2)c1N [PD98059] | significantly inhibit | no effect | significantly inhibit | significantly reduce motility | no effect |  |  |  |  |  |
| STMMRSHKTRSHHV (Hyaluronan binding peptide.) |  |  |  |  |  | increases subcutaneous fat | promoted adipogenesis | 20-200 μg/wound site | filled with adipocytes | promoted adipogenesis; also recorded: increase subcutaneous adipogenesis |
